These results are taken from PubChem BioAssay (NCI).

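Following 48 hours of exposure in 96-well plates, responses at five concentrations were used to interpolate endpoints linearly. The concentration for full growth arrest is given as TGI.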

Test in all cases: NCI tumour cell line growth inhibition, 48 h
Experiment [1] relates to P388 leukemia.
Experiment [2] deals with SN12K1 renal.
In experiment [3] the test system is M19-MEL melanoma.
Experiment [4] concerns DU-145 prostate.
The test system of experiment [5] is HS 578T breast.
For experiment [6], the system named is MDA-MB-435.
The test system of experiment [7] is MDA-N.
For experiment [8], the system named is PC-3 prostate.
Experiment [9] concerns RXF-631 renal.
Experiment [10] deals with MDA-MB-231 breast.

On to `C=CCc1cccc(/C=N\N=C(/N)NO)c1O`, for which the TGI is 3.19 µM in experiment [1] and 11.6 µM in experiment [2].
`N#CCCN(CCC#N)c1ccc(/C=C2\N=C(c3cc([N+](=O)[O-])ccc3Cl)N(NC(=O)CC(=O)Nc3ccccc3Cl)C2=O)cc1` gave a TGI in experiment [3] of over 100 µM.
Turning to `CCCOC1OC(CS(=O)(=O)O)C(O)C(O)C1O` (stereo not given), the TGI in [4], in experiment [5], in experiment [6], in [7] and in [8] was over 100 µM in each case.
As for `CCCCCCCCCCCCCCCC(=O)OC1C(O)C(CO)OC(OC)C1NC(=O)N(CCCl)N=O` (stereo not given), the TGI came to 32.3 µM in [3] and 32 µM in [9].
For `CCOC(=O)NC(Nc1ccc(Cl)cn1)(C(F)(F)F)C(F)(F)F`, the TGI in experiment [4], in experiment [5], in experiment [10], in experiment [6] and in [7] was over 100 µM in each case.
